Where two headings read alike, the source gives them in different places.
Legend:
[1] = tested on: SARS-CoV-2 (strain USA-WA1/2020); assay: microbe, parasite or virus in culture; assay type: cell-based
[2] = Uninfected host cell cytotoxicity counter screen; assay type: cell-based; details: human
Procedure: Uninfected host cell cytotoxicity counter screen: HeLa-ACE2 cells were maintained as described for the infection assay and seeded in the assay-ready plates at 400 cells/well. Plates were incubated for 24 hours at 37° C. 5% CO2. To assess cell viability, the Image-iT DEAD green reagent was used according to manufacturer instructions. Cells were fixed with 4% paraformaldehyde, and counterstained with DAPI. Fixed cells are imaged as described above.
Viral replication data analysis: Data from the primary screen and the host cell cytotoxicity screen are normalized to neutral (DMSO) […] inhibitor controls (2.5 μM Remdesivir for antiviral effect and 10 μM puromycin for infected host cell toxicity). For the uninfected host cell cytotoxicity counter-screen 40 μM puromycin is used as the positive control. Concentration response experiments will be tested in triplicate.

[3] = tested on: HeLa-ACE2 cells; assay: cells; assay type: cell-based; details: Table 2, total cell count in infected plates
[4] = molecular target: SARS-CoV-2 main protease (Mpro) (Severe acute respiratory syndrome coronavirus 2, UniProt P0DTD1); assay: biochemical
[5] = Severe acute respiratory syndrome coronavirus 2, HeLa-ACE2, read-out: CoV-2 HeLa EC50, Table 2, SARS-CoV-2 infected HeLa-ACE2 cells
[6] = Table 3, select example compounds against mpro, read-out: Enzyme IC50
[7] = Severe acute respiratory syndrome coronavirus 2, HeLa, Table 3, read-out: CoV-2 HeLa EC50
[8] = Severe acute respiratory syndrome coronavirus 2, Table 2, SARS-CoV-2 infected HeLa-ACE2 cells, read-out: CoV-2 HeLa EC50

| Structure (SMILES) | EC50 [1, 5] | CC50 at 24 h [2] | EC50 [3] | further results |
| --- | --- | --- | --- | --- |
| Nc1ccc(C(=O)N2CCN(C(c3ccccc3)c3ccccc3)CC2)cn1 [MKP-1309, 5-[4-(diphenylmethyl)piperazine-1-carbonyl]pyridin-2-amine] | > 9.61 µM | > 39.8 µM | > 9.61 µM |  |
| O=C(c1cccnc1Cl)N1CCN(C2c3ccccc3CCc3ccccc32)CC1 [ZS-333, (2-chloro-3-pyridyl)-[4-(2-tricyclo[9.4.0.03,8]pentadeca-1(11),3(8),4,6,12,14-hexaenyl)piperazin-1-yl]methanone] | > 9.61 µM | > 39.8 µM | > 9.61 µM |  |
| Cc1cncc(C(=O)N2CC3CC(C2)N3C(c2ccccc2)c2ccccc2)c1 [AA-614, (6-benzhydryl-3,6-diazabicyclo[3.1.1]heptan-3-yl)(5-methylpyridin-3-yl)methanone] | > 9.61 µM |  | > 9.61 µM | CC50 at 24 h ([2]; Table 2, uninfected cells, 24 hours, read-out: Uninfected HeLa-ACE2 CC50): > 39.8 µM |
| O=C(c1cncc2cn[nH]c12)N1CCC(=C2c3ccccc3CS(=O)(=O)c3ccccc32)CC1 [NZ-821, [4-(5,5-dioxo-6H-benzo[c][1]benzothiepin-11-ylidene)-1-piperidyl]-(1H-pyrazolo[4,3-c]pyridin-7-yl)methanone] |  |  |  | IC50 ([4]; Table 2, read-out: Enzyme IC50): 44 nM; IC50 [4, 6]: 44 nM; EC50 [1, 7]: 0.023 µM |
| O=C1Nc2ccccc2C(N2CCN(C(=O)c3cncc4cc[nH]c34)CC2)c2ccccc21 (centres unmarked) [NZ-815, 11-[4-(1H-pyrrolo[3,2-c]pyridine-7-carbonyl)piperazin-1-yl]-5,11-dihydrobenzo[c][1]benzazepin-6-one] |  |  |  | IC50 ([4]; Table 2, read-out: Enzyme IC50): 30 nM; IC50 [4, 6]: 30 nM; EC50 [1, 7]: 0.097 µM |
| O=C(c1cnc(Cl)c(Cl)c1)N1CCN(C(c2ccccc2)c2ccccc2)CC1 [AA-608, (4-benzhydrylpiperazin-1-yl)(5,6-dichloropyridin-3-yl)methanone] |  | > 39.8 µM | 0.863 µM | EC50 [1, 8]: 1.74 µM |
| O=C(c1cncc2cn[nH]c12)N1CCN(C2c3ccccc3CS(=O)(=O)c3ccccc32)CC1 (centres unmarked) [NZ-822, [4-(5,5-dioxo-6,11-dihydrobenzo[c][1]benzothiepin-11-yl)piperazin-1-yl]-(1H-pyrazolo[4,3-c]pyridin-7-yl)methanone] |  |  |  | IC50 [4, 6]: 54 nM; EC50 [1, 7]: 0.089 µM |
| O=C1CC(C(=O)N2CCC(C(O)(c3ccccc3)c3ccccc3)CC2)CCN1 (centres unmarked) [NZ-789, 4-[4-(hydroxydiphenylmethyl)piperidine-1-carbonyl]piperidin-2-one] | > 9.61 µM | > 39.8 µM | > 9.61 µM |  |
| O=C(c1ccc(Cl)nc1)N1CCN(C2c3ccccc3CCc3ccccc32)CC1 [ZS-337, (6-chloro-3-pyridyl)-[4-(2-tricyclo[9.4.0.03,8]pentadeca-1(11),3(8),4,6,12,14-hexaenyl)piperazin-1-yl]methanone] | > 9.61 µM | > 39.8 µM | > 9.61 µM |  |
| O=Cc1ccccc1C(=O)N1CCC(C(O)(c2ccccc2)c2ccccc2)CC1 [NZ-791, 2-[4-(hydroxydiphenylmethyl)piperidine-1-carbonyl]benzaldehyde] | > 9.61 µM | > 39.8 µM | > 9.61 µM |  |
| O=C(c1cncc2cc[nH]c12)N1CCC(=C(c2cccc(F)c2)c2cccc(F)c2)CC1 [MKP-1355, (4-(bis(3-fluorophenyl)methylene)piperidin-1-yl)(1H-pyrrolo[3,2-c]pyridin-7-yl)methanone] |  |  |  | IC50 ([4]; Table 2, read-out: Enzyme IC50): 28 nM; IC50 [4, 6]: 12 nM; EC50 [1, 7]: 0.094 µM |
| CS(=O)(=O)c1ccccc1C(c1cccc(F)c1)N1CCN(C(=O)c2cncc3cc[nH]c23)CC1 (centres unmarked) [NZ-816, [4-[(3-fluorophenyl)-(2-methylsulfonylphenyl)methyl]piperazin-1-yl]-(1H-pyrrolo[3,2-c]pyridin-7-yl)methanone] |  |  |  | IC50 ([4]; Table 2, read-out: Enzyme IC50): 30 nM; IC50 [4, 6]: 17 nM; EC50 [1, 7]: 0.04 µM |
| O=C(NC1CN(C(c2ccccc2)c2ccccc2)C1)c1cccnc1 [AA-603, N-(1-benzhydrylazetidin-3-yl)nicotinamide] | > 9.61 µM | > 39.8 µM | > 9.61 µM |  |
| N#Cc1ccc(C(=O)N2CCN(C(c3ccccc3)c3ccccc3)CC2)cn1 [MKP-1229, 5-[4-(diphenylmethyl)piperazine-1-carbonyl]pyridine-2-carbonitrile] | > 9.61 µM | > 39.8 µM | > 9.61 µM |  |
| O=C(c1ccon1)N1CCN(C(c2ccccc2)c2ccccc2)CC1 [MKP-1324, 1-(diphenylmethyl)-4-(1,2-oxazole-3-carbonyl)piperazine] | > 9.61 µM | > 39.8 µM | > 9.61 µM |  |
| Cc1oncc1C(=O)N1CCN(C(c2ccccc2)c2ccccc2)CC1 [MKP-1332, (4-benzhydrylpiperazin-1-yl)(5-methylisoxazol-4-yl)methanone] | > 9.61 µM | > 39.8 µM | > 9.61 µM |  |

| Structure (SMILES) | EC50 [1, 5] | CC50 at 24 h [2] | EC50 [3] | further results |
| --- | --- | --- | --- | --- |
| Nc1ncc(C(=O)N2CCN(C(c3ccccc3)c3ccccc3)CC2)cn1 [MKP-1322, 5-[4-(diphenylmethyl)piperazine-1-carbonyl]pyrimidin-2-amine] | > 9.61 µM | > 39.8 µM | > 9.61 µM |  |
| O=C(c1cncc2cc[nH]c12)N1CCN(C(c2cccc(F)c2)c2cccc(F)c2)CC1 [MKP-1371, (4-(bis(3-fluorophenyl)methyl)piperazin-1-yl)(1H-pyrrolo[3,2-c]pyridin-7-yl)methanone] |  |  |  | IC50 ([4]; Table 2, read-out: Enzyme IC50): 25 nM; IC50 [4, 6]: 13 nM; EC50 [1, 7]: 0.047 µM |
| Cc1cncc(CN2CCN(C(c3ccccc3)c3ccccc3)CC2=O)c1 [AA-646, 4-benzhydryl-1-((5-methylpyridin-3-yl)methyl)piperazin-2-one] |  |  |  | IC50 ([4]; Table 2, read-out: Enzyme IC50): 6100 nM; EC50 [1, 8]: 5.2 µM |
| O=C(c1cnc2ccccc2c1)N1CCN(C(c2ccccc2)c2ccccc2)CC1 [MKP-1167, 3-[4-(diphenylmethyl)piperazine-1-carbonyl]quinoline] | > 9.61 µM | > 39.8 µM | > 9.61 µM |  |
| Cc1ccc(C(=O)N2CCN(C(c3ccccc3)c3ccccc3)CC2)cn1 [AA-612, (4-benzhydrylpiperazin-1-yl)(6-methylpyridin-3-yl)methanone] |  | > 39.8 µM | 0.863 µM | EC50 [1, 8]: 1.74 µM |
| O=C1CC(C(=O)N2CCC(C(O)(c3ccccc3)c3ccccc3)CC2)CN1 (centres unmarked) [NZ-790, 4-[4-(hydroxydiphenylmethyl)piperidine-1-carbonyl]pyrrolidin-2-one] | > 9.61 µM | > 39.8 µM | > 9.61 µM |  |
| O=C1CC(CC(=O)N2CCN(C3c4ccccc4CS(=O)(=O)c4ccccc43)CC2)c2ccccc2N1 (centres unmarked) [NZ-811, 4-[2-[4-(5,5-dioxo-6,11-dihydrobenzo[c][1]benzothiepin-11-yl)piperazin-1-yl]-2-oxo-ethyl]-3,4-dihydro-1H-quinolin-2-one] | > 9.61 µM | > 39.8 µM | > 9.61 µM |  |
| Cc1cncc(NC(=O)N2CCN(C(c3ccccc3)c3ccccc3)CC2)c1 [MKP-1323, 4-benzhydryl-N-(5-methylpyridin-3-yl)piperazine-1-carboxamide] | > 9.61 µM | 31.7 µM | > 9.61 µM |  |
| Cc1cncc(CN2CCN(C(c3ccccc3)c3ccccc3)CC2=O)c1 [AA-645, 4-benzhydryl-1-((5-methylpyridin-3-yl)methyl)piperazin-2-one] | > 9.61 µM | > 39.8 µM | > 9.61 µM |  |
| O=C(O)c1cncc(C(=O)N2CCN(C3c4ccccc4CCc4ccccc43)CC2)c1 [ZS-335, 5-[4-(2-tricyclo[9.4.0.03,8]pentadeca-1(11),3(8),4,6,12,14-hexaenyl)piperazine-1-carbonyl]pyridine-3-carboxylic acid] | > 9.61 µM | > 39.8 µM | > 9.61 µM |  |
| C=C(C)C(=O)N1CCN(C(c2ccccc2)c2ccccc2)CC1 [MKP-1219, 1-[4-(diphenylmethyl)piperazin-1-yl]-2-methylprop-2-en-1-one] | > 9.61 µM | > 39.8 µM | > 9.61 µM |  |
| N#CC(c1cccnc1)N1CCN(C(c2ccccc2)c2ccccc2)CC1 (centres unmarked) [MKP-1306, 2-[4-(diphenylmethyl)piperazin-1-yl]-2-(pyridin-3-yl)acetonitrile] | > 9.61 µM | > 39.8 µM | > 9.61 µM |  |
| Cc1cncc(CN2CCN(C(c3ccccc3)c3ccccc3)CC2)c1 [MKP-1307, 1-(diphenylmethyl)-4-[(5-methylpyridin-3-yl)methyl]piperazine] | > 9.61 µM | > 39.8 µM | > 9.61 µM |  |
| c1ccc(C(c2ccccc2)N2CCN(c3nccc4ccncc34)CC2)cc1 [AA-649, 1-(4-benzhydrylpiperazin-1-yl)-2,7-naphthyridine] | > 9.61 µM | > 39.8 µM | > 9.61 µM |  |
| O=C(c1cncc2cc[nH]c12)N1CC2CCC(C1)N2C(c1cccc(F)c1)c1cccc(F)c1 [AA-663, [8-[bis(3-fluorophenyl)methyl]-3,8-diazabicyclo[3.2.1]octan-3-yl]-(1H-pyrrolo[3,2-c]pyridin-7-yl)methanone] |  |  |  | IC50 ([4]; Enzyme IC50, Table 2): 38 nM; IC50 ([4]; Enzyme IC50, Table 3, select example compounds against mpro): 14 nM; EC50 ([1]; Severe acute respiratory syndrome coronavirus 2, HeLa, read-out: CoV-2 HeLa EC50, Table 3): 0.063 µM |
| COc1ccccc1C(=C1CCN(C(=O)c2cncc(C)c2)CC1)c1ccccn1 [MKP-1440, (4-((2-methoxyphenyl)(pyridin-2-yl)methylene)piperidin-1-yl)(5-methylpyridin-3-yl)methanone] |  |  |  | IC50 ([4]; Table 2, read-out: Enzyme IC50): 170 nM |

From US20250084091A1, “INHIBITORS OF SARS-COV-2” (The Texas A&M University System, priority 2021, published 2025)
